The values that follow come from ChEMBL document CHEMBL4699540, “Discovery and structure activity relationships of 7-benzyl triazolopyridines as stable, selective, and reversible inhibitors of myeloperoxidase” (Bioorg Med Chem, 2020).

Molecules are shown by their SMILES.

For data set [1], the system named is Neutrophil. The note with it: Homo sapiens, time 5.0 min.
The nature of data set [2]: Half life in CD-1 mouse at 3 mg/kg, po by LC/MS analysis. In kind it is ADME, organism-based. The note with it: in vivo.
The target in data set [3] is Cytochrome P450 3A4 (Homo sapiens, UniProt P08684). As to the kind of experiment: Inhibition of CYP3A4 (unknown origin). In kind it is ADME.
Sequence of Cytochrome P450 3A4 (P08684 whole entry): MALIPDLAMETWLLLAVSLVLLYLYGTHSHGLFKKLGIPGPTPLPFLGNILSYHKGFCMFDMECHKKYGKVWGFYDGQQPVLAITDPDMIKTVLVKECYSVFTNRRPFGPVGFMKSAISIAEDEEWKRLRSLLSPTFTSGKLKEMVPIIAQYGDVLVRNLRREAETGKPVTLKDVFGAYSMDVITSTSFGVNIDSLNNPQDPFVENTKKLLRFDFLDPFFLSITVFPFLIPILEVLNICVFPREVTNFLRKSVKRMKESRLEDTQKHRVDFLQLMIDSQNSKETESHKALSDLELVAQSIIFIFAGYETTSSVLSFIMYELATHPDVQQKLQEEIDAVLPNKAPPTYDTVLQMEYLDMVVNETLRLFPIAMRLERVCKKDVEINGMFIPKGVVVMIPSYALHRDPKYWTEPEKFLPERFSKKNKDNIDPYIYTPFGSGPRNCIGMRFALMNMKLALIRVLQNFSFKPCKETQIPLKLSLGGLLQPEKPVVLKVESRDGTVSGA
Data set [4] in a line: Binding affinity to human neutrophil MPO delta (1-95) measured for 5 mins by SPR assay. (In general: SPR reads the build-up and loss of mass on a sensor chip optically.)
Data set [5] can be described thus: Permeability of compound at pH 5.5 by PAMPA assay. Conditions: read-out: permeability. In kind it is ADME.
For data set [6], the target named is T1, Methylated-DNA--protein-cysteine methyltransferase (Homo sapiens, UniProt P16455).
T1 sequence (P16455 whole entry): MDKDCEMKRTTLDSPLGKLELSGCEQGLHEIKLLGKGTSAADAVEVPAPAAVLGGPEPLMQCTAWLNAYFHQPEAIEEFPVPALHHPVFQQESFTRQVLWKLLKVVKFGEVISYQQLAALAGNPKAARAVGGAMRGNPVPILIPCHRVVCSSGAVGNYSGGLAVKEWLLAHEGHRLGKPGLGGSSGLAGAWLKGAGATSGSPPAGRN
As to the kind of experiment: Inhibition of human MGMT using 06-benzylguanine as substrate incubated for 30 mins by LC/MS analysis. Conditions: 0.5 h.

Data set [7] can be described thus: Metabolic stability in human liver microsomes assessed as compound remaining. It is filed as ADME, Microsome. For orientation: Liver microsomes are a subcellular fraction often used to study metabolism.
Data set [8] can be described thus: AUCtot in CD-1 mouse at 3 mg/kg, po by LC/MS analysis. It is filed as ADME, organism-based. Also on record: time AUCmax, route oral, dose 3 mg/kg. Conditions: in vivo.
Data set [9] addresses T2, Cytochrome P450 1A2 (Homo sapiens, UniProt P05177).
T2 sequence (P05177 whole entry): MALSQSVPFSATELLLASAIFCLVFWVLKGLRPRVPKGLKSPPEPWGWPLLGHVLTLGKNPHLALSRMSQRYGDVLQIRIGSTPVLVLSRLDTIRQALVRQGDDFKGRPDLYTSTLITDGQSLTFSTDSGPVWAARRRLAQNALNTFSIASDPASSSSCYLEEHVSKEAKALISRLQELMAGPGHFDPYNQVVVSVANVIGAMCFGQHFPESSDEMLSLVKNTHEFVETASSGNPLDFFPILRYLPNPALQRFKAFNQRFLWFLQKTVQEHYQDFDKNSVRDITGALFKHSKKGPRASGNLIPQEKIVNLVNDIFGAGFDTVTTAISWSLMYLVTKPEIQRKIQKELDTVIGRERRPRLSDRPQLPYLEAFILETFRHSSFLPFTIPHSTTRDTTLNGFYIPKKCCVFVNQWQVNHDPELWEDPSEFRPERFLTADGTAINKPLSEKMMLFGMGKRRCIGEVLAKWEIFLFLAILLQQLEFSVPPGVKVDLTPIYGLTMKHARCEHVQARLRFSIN
As to the kind of experiment: Inhibition of CYP1A2 (unknown origin). In kind it is ADME.

A short description of data set [10]: Dissociation constant, pKa of the compound. In kind it is physicochemical.
A short description of data set [11]: Metabolic stability in mouse liver microsomes assessed as compound remaining. In kind it is ADME, Microsome.
A short description of data set [12]: Metabolic stability in rat liver microsomes assessed as compound remaining. It is filed as ADME, Microsome.
Data set [13] addresses T3, Cytochrome P450 2B6 (Homo sapiens, UniProt P20813).
T3 sequence (P20813 whole entry): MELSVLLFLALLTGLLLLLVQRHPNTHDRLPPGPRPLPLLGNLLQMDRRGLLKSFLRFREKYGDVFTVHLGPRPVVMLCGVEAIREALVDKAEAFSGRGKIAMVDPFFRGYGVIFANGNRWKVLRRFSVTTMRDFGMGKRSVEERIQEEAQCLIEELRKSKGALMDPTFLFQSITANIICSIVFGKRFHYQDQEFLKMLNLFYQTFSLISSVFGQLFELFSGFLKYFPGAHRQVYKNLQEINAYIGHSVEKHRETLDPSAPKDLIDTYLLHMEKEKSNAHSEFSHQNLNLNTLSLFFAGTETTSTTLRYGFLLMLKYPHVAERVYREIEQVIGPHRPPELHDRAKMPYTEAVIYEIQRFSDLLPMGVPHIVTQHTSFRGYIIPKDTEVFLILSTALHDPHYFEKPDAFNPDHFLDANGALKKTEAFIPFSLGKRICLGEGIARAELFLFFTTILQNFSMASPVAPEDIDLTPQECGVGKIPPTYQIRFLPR
Description: Inhibition of CYP2B6 (unknown origin). It is filed as ADME.

Data set [14] concerns the target T4, Myeloperoxidase (Homo sapiens, UniProt P05164).
T4 sequence (P05164 whole entry): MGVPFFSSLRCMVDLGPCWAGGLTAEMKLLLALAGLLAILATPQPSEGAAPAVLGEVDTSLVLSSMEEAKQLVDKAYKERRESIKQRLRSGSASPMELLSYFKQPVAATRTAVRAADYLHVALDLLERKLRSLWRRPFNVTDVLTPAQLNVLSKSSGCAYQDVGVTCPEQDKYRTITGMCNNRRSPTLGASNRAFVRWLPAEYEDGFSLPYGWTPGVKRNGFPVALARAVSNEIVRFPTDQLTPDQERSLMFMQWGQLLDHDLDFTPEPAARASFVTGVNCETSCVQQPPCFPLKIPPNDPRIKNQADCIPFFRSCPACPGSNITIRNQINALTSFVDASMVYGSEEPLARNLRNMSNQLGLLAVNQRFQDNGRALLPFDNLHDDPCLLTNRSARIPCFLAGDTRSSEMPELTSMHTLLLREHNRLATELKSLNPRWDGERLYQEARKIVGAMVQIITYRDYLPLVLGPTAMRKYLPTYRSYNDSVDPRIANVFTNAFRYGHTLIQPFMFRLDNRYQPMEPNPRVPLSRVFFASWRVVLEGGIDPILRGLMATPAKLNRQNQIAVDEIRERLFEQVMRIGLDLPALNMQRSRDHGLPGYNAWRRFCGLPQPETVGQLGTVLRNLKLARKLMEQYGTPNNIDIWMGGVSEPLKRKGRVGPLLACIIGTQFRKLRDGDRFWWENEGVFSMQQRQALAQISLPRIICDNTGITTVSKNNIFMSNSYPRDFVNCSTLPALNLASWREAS
Description: Inhibition of recombinant human MPO incubated for 10 mins by amplex red dye based assay.

Data set [15] is described as follows: Permeability of compound at pH 7.4 by PAMPA assay. The note with it: read-out: permeability. In kind it is ADME. Background: PAMPA measures passive passage across an artificial lipid membrane.
Data set [16] deals with Cytochrome P450 2D6 (Homo sapiens, UniProt P10635). As to the kind of experiment: Inhibition of CYP2D6 (unknown origin). In kind it is ADME.
Sequence of Cytochrome P450 2D6 (P10635 whole entry): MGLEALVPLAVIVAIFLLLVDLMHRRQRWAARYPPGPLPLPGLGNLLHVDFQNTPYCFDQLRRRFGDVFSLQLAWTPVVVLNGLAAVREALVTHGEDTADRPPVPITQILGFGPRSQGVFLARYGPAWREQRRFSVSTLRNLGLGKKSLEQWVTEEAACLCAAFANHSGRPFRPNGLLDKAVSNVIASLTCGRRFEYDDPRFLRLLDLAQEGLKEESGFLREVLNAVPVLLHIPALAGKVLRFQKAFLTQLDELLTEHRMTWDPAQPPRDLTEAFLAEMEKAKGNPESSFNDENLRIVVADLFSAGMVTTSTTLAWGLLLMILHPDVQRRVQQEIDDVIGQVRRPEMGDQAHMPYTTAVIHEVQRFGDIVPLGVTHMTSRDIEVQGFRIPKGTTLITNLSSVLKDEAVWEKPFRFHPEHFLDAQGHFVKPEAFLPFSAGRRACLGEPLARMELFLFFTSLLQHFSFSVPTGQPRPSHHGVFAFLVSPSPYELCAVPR
Data set [17] concerns the target T5, Cytochrome P450 2C8 (Homo sapiens, UniProt P10632).
T5 sequence (P10632 whole entry): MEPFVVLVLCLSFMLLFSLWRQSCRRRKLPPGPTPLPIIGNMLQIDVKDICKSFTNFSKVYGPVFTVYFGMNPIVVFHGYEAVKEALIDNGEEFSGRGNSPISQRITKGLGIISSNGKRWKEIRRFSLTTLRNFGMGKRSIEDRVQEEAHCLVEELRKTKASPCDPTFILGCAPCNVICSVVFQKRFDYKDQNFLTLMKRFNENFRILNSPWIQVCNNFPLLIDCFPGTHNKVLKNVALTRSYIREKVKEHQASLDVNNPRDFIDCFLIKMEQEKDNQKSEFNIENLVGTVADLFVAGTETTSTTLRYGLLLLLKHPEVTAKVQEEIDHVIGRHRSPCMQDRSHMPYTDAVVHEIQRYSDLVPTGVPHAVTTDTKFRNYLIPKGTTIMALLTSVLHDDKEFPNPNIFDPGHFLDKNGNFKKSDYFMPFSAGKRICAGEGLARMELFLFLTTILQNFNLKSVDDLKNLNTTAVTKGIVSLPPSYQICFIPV
Description: Inhibition of CYP2C8 (unknown origin). It is filed as ADME.

The target in data set [18] is T6, Myeloperoxidase (Mus musculus, UniProt P11247).
T6 sequence (P11247 whole entry): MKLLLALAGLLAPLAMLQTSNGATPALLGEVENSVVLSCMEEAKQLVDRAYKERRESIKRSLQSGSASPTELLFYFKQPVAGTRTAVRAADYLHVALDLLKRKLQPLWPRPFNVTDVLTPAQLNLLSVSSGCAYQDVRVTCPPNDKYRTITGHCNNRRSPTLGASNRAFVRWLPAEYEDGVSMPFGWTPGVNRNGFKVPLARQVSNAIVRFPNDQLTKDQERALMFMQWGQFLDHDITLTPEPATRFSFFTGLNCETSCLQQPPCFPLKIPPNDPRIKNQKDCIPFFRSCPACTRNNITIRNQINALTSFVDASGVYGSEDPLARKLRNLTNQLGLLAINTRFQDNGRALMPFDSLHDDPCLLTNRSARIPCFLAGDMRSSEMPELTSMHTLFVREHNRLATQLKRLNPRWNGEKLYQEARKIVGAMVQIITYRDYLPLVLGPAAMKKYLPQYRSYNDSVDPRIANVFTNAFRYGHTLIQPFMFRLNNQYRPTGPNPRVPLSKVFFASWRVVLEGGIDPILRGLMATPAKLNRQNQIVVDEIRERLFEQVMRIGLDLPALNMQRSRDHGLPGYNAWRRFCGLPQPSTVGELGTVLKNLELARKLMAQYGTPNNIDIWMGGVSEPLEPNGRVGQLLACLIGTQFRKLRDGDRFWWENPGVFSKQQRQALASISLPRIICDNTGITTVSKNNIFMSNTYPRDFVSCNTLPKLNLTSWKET
As to the kind of experiment: Inhibition of PMA-induced MPO in mouse Neutrophil incubated for 3 mins by luminometry. It is filed as tissue-based.

For the molecule `Nc1nc(OCc2ccccc2)c2[nH]nnc2n1`, the Ka in data set [1] was 1.3 10^3/M.s. For the same molecule, the Kdiss in data set [1] is 0.72 10^-3/s. In data set [2], the half-life (in general, the time needed for the level to fall by half in the phase considered) is 2.4 h. Besides, the concentration for half-maximal inhibition (IC50) – broadly, the point on the concentration scale where inhibition reaches its midpoint – in [3] was over 10 µM; in [9] it was over 10 µM; in data set [13] it was over 10 µM; in data set [14], 0.103 µM; in [16] it was over 10 µM; in [17] it was over 10 µM. For the same molecule, in data set [4], the Kd – broadly, the constant that tells how readily two partners part at equilibrium – came out at 0.547 µM. The Papp came out at 42 ×10⁻⁶ cm/s in data set [5] and 16.7 ×10⁻⁶ cm/s in data set [15]. For the same molecule, the “inhibition (INH)” value in data set [6] is recorded as “Active”. For the same molecule, the Stabilty was 93% in data set [7], 80% in data set [11] and 95% in data set [12]. The exposure (AUC) – broadly, the area under the concentration-time curve, a measure of exposure – in [8] worked out at 22.2 µM·h. Moreover, the pKa (in general, the negative logarithm of the acid dissociation constant) in data set [10] worked out at 6.6.

In turn, `O=c1[nH]c(=S)n(C[C@H]2CCCO2)c2nc[nH]c12` gave an IC50 in [18] of 32.5 µM.
